Here are results for 30 compounds from patent US10906915B2, “Substituted pyrazoloazepin-4-ones and their use as phosphodiesterase inhibitors” (LEO Pharma A/S, priority 2016, dated 2021).

Chain of human PDE4D catalytic domain (Q08499 380-740 limits assumed): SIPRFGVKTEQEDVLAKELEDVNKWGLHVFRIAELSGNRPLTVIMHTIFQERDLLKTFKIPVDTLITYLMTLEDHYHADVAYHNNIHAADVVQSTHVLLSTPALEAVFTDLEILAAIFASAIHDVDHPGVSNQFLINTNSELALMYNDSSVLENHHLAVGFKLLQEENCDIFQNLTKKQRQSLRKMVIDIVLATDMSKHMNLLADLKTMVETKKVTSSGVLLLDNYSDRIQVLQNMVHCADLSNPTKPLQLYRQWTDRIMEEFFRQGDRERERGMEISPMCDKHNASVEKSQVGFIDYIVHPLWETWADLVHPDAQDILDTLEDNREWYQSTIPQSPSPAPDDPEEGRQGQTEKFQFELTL

For this test, the target named is human PDE4D catalytic domain (UniProt no. Q08499) (Homo sapiens (Human), UniProt Q08499). Put plainly: PDE4 assay (TR-FRET, FAM-cAMP cleavage). It counts as biochemical. The note with it: human PDE4D catalytic domain; molar concentration giving 50% inhibition of substrate cleavage; read-out: PDE4 IC50 range. In short, it runs like this:
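Read-out is time-resolved FRET from Tb donor to FAM-AMP captured on trivalent-metal nanoparticles added to stop the reaction. Substrate was a mix of plain and FAM-labelled cAMP, cleaved by human PDE4D catalytic domain ([…]) with titrated compound; IC50 ranges (nM) versus controls.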
As to `CCc1nn(CCCOC(=O)c2ccc(C)cc2Cl)c2c1C(=O)NCC1(CCOCC1)C2` [Example 73, 3-(3-ethyl-4-oxo-spiro[6,8-dihydro-5H-pyrazolo[4,3-c]azepine-7,4′-tetrahydropyran]-1-yl)propyl 2-chloro-4-methyl-benzoate], the IC50 was less than 0.1 µM. `CCc1nn(CCCOC(=O)c2cccc(Cl)c2C)c2c1C(=O)NCC1(CCOCC1)C2` [Example 74, 3-(3-ethyl-4-oxo-spiro[6,8-dihydro-5H-pyrazolo[4,3-c]azepine-7,4′-tetrahydropyran]-1-yl)propyl 3-chloro-2-methyl-benzoate]: the IC50 was less than 0.1 µM. For the compound `CCc1nn(CCCOC(=O)c2cc(Cl)ccc2C)c2c1C(=O)NCC1(CCOCC1)C2` [Example 75, 3-(3-ethyl-4-oxo-spiro[6,8-dihydro-5H-pyrazolo[4,3-c]azepine-7,4′-tetrahydropyran]-1-yl)propyl 5-chloro-2-methyl-benzoate], the IC50 is less than 0.1 µM.

Consider `CCc1nn(CCCOC(=O)c2ccc(C(F)F)cc2)c2c1C(=O)NCC1(CCOCC1)C2` [Example 76, 3-(3-ethyl-4-oxo-spiro[6,8-dihydro-5H-pyrazolo[4,3-c]azepine-7,4′-tetrahydropyran]-1-yl)propyl 4-(difluoromethyl)benzoate], for which the IC50 is less than 0.1 µM. `CCc1nn(CCCOC(=O)c2ccc(F)cc2Cl)c2c1C(=O)NCC1(CCOCC1)C2` [Example 77, 3-(3-ethyl-4-oxo-spiro[6,8-dihydro-5H-pyrazolo[4,3-c]azepine-7,4′-tetrahydropyran]-1-yl)propyl 2-chloro-4-fluoro-benzoate]: the half-inhibitory concentration (IC50) was less than 0.1 µM.

With `CCc1nn(CCCOC(=O)c2cccc(Cl)c2F)c2c1C(=O)NCC1(CCOCC1)C2` [Example 78, 3-(3-ethyl-4-oxo-spiro[6,8-dihydro-5H-pyrazolo[4,3-c]azepine-7,4′-tetrahydropyran]-1-yl)propyl 3-chloro-2-fluoro-benzoate], the IC50 is less than 0.1 µM.

Turning to `CCc1nn(CCCOC(=O)c2cc(F)cc(Cl)c2)c2c1C(=O)NCC1(CCOCC1)C2` [Example 79, 3-(3-ethyl-4-oxo-spiro[6,8-dihydro-5H-pyrazolo[4,3-c]azepine-7,4′-tetrahydropyran]-1-yl)propyl 3-chloro-5-fluoro-benzoate], the IC50 was less than 0.1 µM. Take `CCc1nn(CCCOC(=O)c2c(F)cccc2Cl)c2c1C(=O)NCC1(CCOCC1)C2` [Example 80, 3-(3-ethyl-4-oxo-spiro[6,8-dihydro-5H-pyrazolo[4,3-c]azepine-7,4′-tetrahydropyran]-1-yl)propyl 2-chloro-6-fluoro-benzoate]: the half-maximal inhibitory concentration (IC50) is less than 0.1 µM. As for `CCc1nn(CCCOC(=O)c2ccc(Cl)c(F)c2)c2c1C(=O)NCC1(CCOCC1)C2` [Example 81, 3-(3-ethyl-4-oxo-spiro[6,8-dihydro-5H-pyrazolo[4,3-c]azepine-7,4′-tetrahydropyran]-1-yl)propyl 4-chloro-3-fluoro-benzoate], the half-maximal inhibitory concentration (IC50) is less than 0.1 µM. `CCc1nn(CCCOC(=O)c2cc(F)ccc2Cl)c2c1C(=O)NCC1(CCOCC1)C2` [Example 82, 3-(3-ethyl-4-oxo-spiro[6,8-dihydro-5H-pyrazolo[4,3-c]azepine-7,4′-tetrahydropyran]-1-yl)propyl 2-chloro-5-fluoro-benzoate]: the IC50 is less than 0.1 µM. As for `CCc1nn(CCCOC(=O)c2cc(Cl)ccc2F)c2c1C(=O)NCC1(CCOCC1)C2` [Example 83, 3-(3-ethyl-4-oxo-spiro[6,8-dihydro-5H-pyrazolo[4,3-c]azepine-7,4′-tetrahydropyran]-1-yl)propyl 5-chloro-2-fluoro-benzoate], the IC50 was less than 0.1 µM.

Consider `CCc1nn(CCCOC(=O)c2ccc(F)c(Cl)c2)c2c1C(=O)NCC1(CCOCC1)C2` [Example 84, 3-(3-ethyl-4-oxo-spiro[6,8-dihydro-5H-pyrazolo[4,3-c]azepine-7,4′-tetrahydropyran]-1-yl)propyl 3-chloro-4-fluoro-benzoate], for which the IC50 was less than 0.1 µM. Consider `CCc1nn(CCCOC(=O)c2ccc(Cl)cc2F)c2c1C(=O)NCC1(CCOCC1)C2` [Example 85, 3-(3-ethyl-4-oxo-spiro[6,8-dihydro-5H-pyrazolo[4,3-c]azepine-7,4′-tetrahydropyran]-1-yl)propyl 4-chloro-2-fluoro-benzoate], for which the half-inhibitory concentration (IC50) is less than 0.1 µM. Turning to `CCc1nn(CCCOC(=O)c2ccc(OC)c(Cl)c2)c2c1C(=O)NCC1(CCOCC1)C2` [Example 86, 3-(3-ethyl-4-oxo-spiro[6,8-dihydro-5H-pyrazolo[4,3-c]azepine-7,4′-tetrahydropyran]-1-yl)propyl 3-chloro-4-methoxy-benzoate], the IC50 is less than 0.1 µM. On to `CCc1nn(CCCOC(=O)c2ccc(Cl)c(OC)c2)c2c1C(=O)NCC1(CCOCC1)C2` [Example 87, 3-(3-ethyl-4-oxo-spiro[6,8-dihydro-5H-pyrazolo[4,3-c]azepine-7,4′-tetrahydropyran]-1-yl)propyl 4-chloro-3-methoxy-benzoate], for which the half-inhibitory concentration (IC50) was less than 0.1 µM.

In the case of `CCc1nn(CCCOC(=O)c2cc(Cl)cc(OC)c2)c2c1C(=O)NCC1(CCOCC1)C2` [Example 88, 3-(3-ethyl-4-oxo-spiro[6,8-dihydro-5H-pyrazolo[4,3-c]azepine-7,4′-tetrahydropyran]-1-yl)propyl 3-chloro-5-methoxy-benzoate], the IC50 was less than 0.1 µM. Under `CCc1nn(CCCOC(=O)c2ccc(OC)cc2Cl)c2c1C(=O)NCC1(CCOCC1)C2` [Example 89, 3-(3-ethyl-4-oxo-spiro[6,8-dihydro-5H-pyrazolo[4,3-c]azepine-7,4′-tetrahydropyran]-1-yl)propyl 2-chloro-4-methoxy-benzoate] stands less than 0.1 µM; under `CCc1nn(CCCOC(=O)c2cc(OC)ccc2Cl)c2c1C(=O)NCC1(CCOCC1)C2` [Example 90, 3-(3-ethyl-4-oxo-spiro[6,8-dihydro-5H-pyrazolo[4,3-c]azepine-7,4′-tetrahydropyran]-1-yl)propyl 2-chloro-5-methoxy-benzoate], less than 0.1 µM; under `CCc1nn(CCCOC(=O)c2cccc(OC)c2Cl)c2c1C(=O)NCC1(CCOCC1)C2` [Example 91, 3-(3-ethyl-4-oxo-spiro[6,8-dihydro-5H-pyrazolo[4,3-c]azepine-7,4′-tetrahydropyran]-1-yl)propyl 2-chloro-3-methoxy-benzoate], less than 0.1 µM. Take `CCc1nn(CCCOC(=O)c2ccc(Cl)cc2OC)c2c1C(=O)NCC1(CCOCC1)C2` [Example 92, 3-(3-ethyl-4-oxo-spiro[6,8-dihydro-5H-pyrazolo[4,3-c]azepine-7,4′-tetrahydropyran]-1-yl)propyl 4-chloro-2-methoxy-benzoate]: the concentration for half-maximal inhibition (IC50) was less than 0.1 µM.

For `CCc1nn(CCCOC(=O)c2cc(Cl)ccc2OC)c2c1C(=O)NCC1(CCOCC1)C2` [Example 93, 3-(3-ethyl-4-oxo-spiro[6,8-dihydro-5H-pyrazolo[4,3-c]azepine-7,4′-tetrahydropyran]-1-yl)propyl 5-chloro-2-methoxy-benzoate], the IC50 is less than 0.1 µM. Take `CCc1nn(CCCOC(=O)c2cccc(Cl)c2OC)c2c1C(=O)NCC1(CCOCC1)C2` [Example 94, 3-(3-ethyl-4-oxo-spiro[6,8-dihydro-5H-pyrazolo[4,3-c]azepine-7,4′-tetrahydropyran]-1-yl)propyl 3-chloro-2-methoxy-benzoate]: the IC50 is less than 0.1 µM. Take `CCc1nn(CCCOC(=O)c2ccccc2C(F)(F)F)c2c1C(=O)NCC1(CCOCC1)C2` [Example 95, 3-(3-ethyl-4-oxo-spiro[6,8-dihydro-5H-pyrazolo[4,3-c]azepine-7,4′-tetrahydropyran]-1-yl)propyl 2-(trifluoromethyl)benzoate]: the concentration for half-maximal inhibition (IC50) was less than 0.1 µM. Consider `CCc1nn(CCCOC(=O)c2cccc(C(F)(F)F)c2)c2c1C(=O)NCC1(CCOCC1)C2` [Example 96, 3-(3-ethyl-4-oxo-spiro[6,8-dihydro-5H-pyrazolo[4,3-c]azepine-7,4′-tetrahydropyran]-1-yl)propyl 3-(trifluoromethyl)benzoate], for which the concentration for half-maximal inhibition (IC50) is less than 0.1 µM.

For the compound `CCc1nn(CCCOC(=O)c2ccc(C(F)(F)F)cc2)c2c1C(=O)NCC1(CCOCC1)C2` [Example 97, 3-(3-ethyl-4-oxo-spiro[6,8-dihydro-5H-pyrazolo[4,3-c]azepine-7,4′-tetrahydropyran]-1-yl)propyl 4-(trifluoromethyl)benzoate], the IC50 was less than 0.1 µM. The result for `CCc1nn(CCCOC(=O)c2ccc(S(C)(=O)=O)cc2)c2c1C(=O)NCC1(CCOCC1)C2` [Example 98, 3-(3-ethyl-4-oxo-spiro[6,8-dihydro-5H-pyrazolo[4,3-c]azepine-7,4′-tetrahydropyran]-1-yl)propyl 4-methylsulfonylbenzoate] reads less than 0.1 µM. In the case of `CCc1nn(CCCOC(=O)c2cccc(S(C)(=O)=O)c2)c2c1C(=O)NCC1(CCOCC1)C2` [Example 99, 3-(3-ethyl-4-oxo-spiro[6,8-dihydro-5H-pyrazolo[4,3-c]azepine-7,4′-tetrahydropyran]-1-yl)propyl 3-methylsulfonylbenzoate], the concentration for half-maximal inhibition (IC50) is less than 0.1 µM.

`CCc1nn(CCCOC(=O)c2ccccc2S(C)(=O)=O)c2c1C(=O)NCC1(CCOCC1)C2` [Example 100, 3-(3-ethyl-4-oxo-spiro[6,8-dihydro-5H-pyrazolo[4,3-c]azepine-7,4′-tetrahydropyran]-1-yl)propyl 2-methylsulfonylbenzoate]: the half-maximal inhibitory concentration (IC50) is less than 0.1 µM. On to `CCc1nn(CCCOC(=O)c2ccc(S(N)(=O)=O)cc2)c2c1C(=O)NCC1(CCOCC1)C2` [Example 101, 3-(3-ethyl-4-oxo-spiro[6,8-dihydro-5H-pyrazolo[4,3-c]azepine-7,4′-tetrahydropyran]-1-yl)propyl 4-sulfamoylbenzoate], for which the IC50 is less than 0.1 µM.

Turning to `CCc1nn(CCCOC(=O)c2cccc(S(N)(=O)=O)c2)c2c1C(=O)NCC1(CCOCC1)C2` [Example 102, 3-(3-ethyl-4-oxo-spiro[6,8-dihydro-5H-pyrazolo[4,3-c]azepine-7,4′-tetrahydropyran]-1-yl)propyl 3-sulfamoylbenzoate], the IC50 was less than 0.1 µM.
